What all share (type): cell-based
Assay [1] concerns the target T1, PPARγ (Homo sapiens, UniProt P37231).
T1 sequence (P37231 238-505 limits assumed): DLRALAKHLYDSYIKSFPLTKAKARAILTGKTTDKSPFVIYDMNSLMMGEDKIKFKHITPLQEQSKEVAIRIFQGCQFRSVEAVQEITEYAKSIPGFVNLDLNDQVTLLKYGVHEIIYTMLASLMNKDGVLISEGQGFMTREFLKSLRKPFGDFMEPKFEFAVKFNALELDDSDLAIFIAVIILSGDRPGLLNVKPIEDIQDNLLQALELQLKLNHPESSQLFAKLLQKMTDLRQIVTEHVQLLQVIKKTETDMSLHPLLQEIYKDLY
Description: Cotransfection (CTF) / response element assays, PPARγ in CV-1 cells. Also noted: rows headed: PPARγ efficacy (% efficacy compared to a PPARγ full agonist set at 100%); PPARγ or PPARα are constitutively expressed using plasmids containing the cytomegalovirus promoter. The note with it: CV-1; range over CTF assays of Tables 1 and 3; read-out: PPARγ efficacy (% efficacy compared to a PPARγ full agonist set at 100%). An excerpt:
(§1) PPARγ or PPARα are constitutively expressed using plasmids containing the cytomegalovirus promoter. Reporter plasmids for the PPARγ CTF assays contain PPREs from the following genes: acyl coA oxidase (AOX); apolipoprotein A1 (ApoA1); lipoprotein lipase (LPL); or enoyl-CoA hydratase/3-hydroxyacyl-CoA dehydrogenase (HD) plus the thymidine kinase (TK) promoter upstream of the luciferase reporter cDNA. A PPARγ […] galactosidase (GAL4) chimeric system is also used. For PPARα, a GAL4 chimeric system is the standard CTF assay performed. All assays are done in CV-1 cells. Compounds are tested in full log dilution, from 0.1 nM to 10 μM in duplicate. Percent efficacies are determined relative to reference molecules with the efficacy value reflecting the greatest amount of agonist activity achieved in the CTF assay for each compound. Median effective concentration (EC50) values are determined by computer fit to a concentration-response curve. An EC50 value is not calculated if the efficacy for the compound is <20%. Reported values represent means from two to nine separate experiments.

The target in assay [2] is T2, PPARγ ligand binding domain / ASC-2 (Homo sapiens, UniProt P37231).
T2 construct: expressed in transfected cells; host or cells: CV-1 cells
T2 sequence (Q14686 whole entry partner, species assumed, one chain of several, the tested form may be a part): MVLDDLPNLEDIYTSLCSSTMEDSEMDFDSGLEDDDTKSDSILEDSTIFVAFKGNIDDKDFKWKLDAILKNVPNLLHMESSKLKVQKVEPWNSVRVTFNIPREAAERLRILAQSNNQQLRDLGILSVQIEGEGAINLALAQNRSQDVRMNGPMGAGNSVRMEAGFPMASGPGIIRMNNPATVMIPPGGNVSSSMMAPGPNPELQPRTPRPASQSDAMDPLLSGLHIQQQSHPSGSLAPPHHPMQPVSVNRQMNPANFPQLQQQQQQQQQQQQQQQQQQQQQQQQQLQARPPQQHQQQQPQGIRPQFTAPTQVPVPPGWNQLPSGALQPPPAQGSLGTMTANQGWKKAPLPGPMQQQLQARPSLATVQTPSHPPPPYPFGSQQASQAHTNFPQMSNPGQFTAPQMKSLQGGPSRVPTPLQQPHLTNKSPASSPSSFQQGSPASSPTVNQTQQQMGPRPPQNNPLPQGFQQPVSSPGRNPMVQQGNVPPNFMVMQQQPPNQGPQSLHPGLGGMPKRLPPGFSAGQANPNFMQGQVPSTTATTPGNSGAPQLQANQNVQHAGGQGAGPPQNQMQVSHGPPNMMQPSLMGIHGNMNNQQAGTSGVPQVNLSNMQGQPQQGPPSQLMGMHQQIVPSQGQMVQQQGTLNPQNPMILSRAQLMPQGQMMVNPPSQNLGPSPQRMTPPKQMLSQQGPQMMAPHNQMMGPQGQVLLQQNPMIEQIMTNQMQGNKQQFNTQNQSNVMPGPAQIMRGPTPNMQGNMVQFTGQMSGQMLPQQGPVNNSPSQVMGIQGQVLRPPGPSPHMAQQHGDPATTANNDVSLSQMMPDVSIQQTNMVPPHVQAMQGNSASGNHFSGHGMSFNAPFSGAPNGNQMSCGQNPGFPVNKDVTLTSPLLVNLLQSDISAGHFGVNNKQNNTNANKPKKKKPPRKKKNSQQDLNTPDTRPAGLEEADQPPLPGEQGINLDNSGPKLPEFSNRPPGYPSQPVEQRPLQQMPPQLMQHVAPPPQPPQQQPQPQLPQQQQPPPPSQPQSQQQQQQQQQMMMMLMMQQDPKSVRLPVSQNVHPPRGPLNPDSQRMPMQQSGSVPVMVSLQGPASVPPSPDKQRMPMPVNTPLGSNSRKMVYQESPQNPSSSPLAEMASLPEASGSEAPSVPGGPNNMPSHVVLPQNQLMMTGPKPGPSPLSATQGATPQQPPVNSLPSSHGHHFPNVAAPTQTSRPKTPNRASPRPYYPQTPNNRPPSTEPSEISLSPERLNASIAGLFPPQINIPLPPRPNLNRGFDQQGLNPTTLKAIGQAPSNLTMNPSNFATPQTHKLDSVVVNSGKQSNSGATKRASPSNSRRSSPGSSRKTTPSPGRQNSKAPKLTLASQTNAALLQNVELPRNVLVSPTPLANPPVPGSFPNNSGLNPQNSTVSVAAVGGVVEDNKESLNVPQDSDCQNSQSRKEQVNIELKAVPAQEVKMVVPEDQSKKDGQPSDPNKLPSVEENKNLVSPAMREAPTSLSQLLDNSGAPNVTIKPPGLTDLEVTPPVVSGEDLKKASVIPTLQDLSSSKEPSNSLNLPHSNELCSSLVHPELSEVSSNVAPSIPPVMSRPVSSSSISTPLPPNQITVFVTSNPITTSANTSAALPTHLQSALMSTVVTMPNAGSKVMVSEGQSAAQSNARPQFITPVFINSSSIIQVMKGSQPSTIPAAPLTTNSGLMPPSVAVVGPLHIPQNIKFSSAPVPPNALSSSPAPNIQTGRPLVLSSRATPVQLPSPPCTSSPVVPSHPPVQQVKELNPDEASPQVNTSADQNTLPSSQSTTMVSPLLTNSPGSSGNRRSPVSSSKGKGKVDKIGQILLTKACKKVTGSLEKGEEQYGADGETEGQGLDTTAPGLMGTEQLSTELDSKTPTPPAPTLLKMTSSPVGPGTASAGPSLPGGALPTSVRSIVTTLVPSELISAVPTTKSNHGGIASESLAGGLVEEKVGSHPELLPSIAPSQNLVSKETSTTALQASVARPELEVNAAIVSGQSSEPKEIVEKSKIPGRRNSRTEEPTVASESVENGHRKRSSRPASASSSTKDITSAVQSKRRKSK
The experiment in a line: Co-factor recruitment assay (mammalian-2-hybrid, CV-1 cells), ASC-2. The note with it: for EC50: read-out: ASC2 EC50; for ASC2 Eff: relative to a PPARγ full agonist. An excerpt: (§2) A mammalian-2-hybrid assay system in CTF format is done in CV-1 cells. The following plasmids are used: a mammalian expression vector encoding a fusion of the GAL4 DNA binding domain with the PPARγ ligand binding domain; a mammalian expression vector encoding a fusion of the VP16 transactivation domain with the nuclear receptor interaction domain of the respective co-activators: CREB-binding protein (CBP), peroxisome proliferator-activated receptor gamma coactivator-1 (PGC-1), activating signal cointegrator-2 (ASC-2), thyroid hormone receptor-activated protein complex (TRAP220), and the peptide C33; and a reporter plasmid (multimerized GAL4 binding sites/minimal TK promoter driving a luciferase cDNA). Cells are transfected in batch format and treated with compound (full log dilution from 0.1 nM to 10 μM) or vehicle for 24 hours. Subsequently, the cells are lysed and luciferase activity is measured. Luciferase activity serves as the endpoint for interaction between co-activator and receptor. The data are presented as % efficacy relative to a PPARγ full agonist and represent means from four to six separate experiments.

The target of assay [3] is T3, PPARγ ligand binding domain / PGC-1 (Homo sapiens, UniProt P37231).
T3 construct: expressed in transfected cells; host or cells: CV-1 cells
T3 sequence (P37231 238-503 limits assumed): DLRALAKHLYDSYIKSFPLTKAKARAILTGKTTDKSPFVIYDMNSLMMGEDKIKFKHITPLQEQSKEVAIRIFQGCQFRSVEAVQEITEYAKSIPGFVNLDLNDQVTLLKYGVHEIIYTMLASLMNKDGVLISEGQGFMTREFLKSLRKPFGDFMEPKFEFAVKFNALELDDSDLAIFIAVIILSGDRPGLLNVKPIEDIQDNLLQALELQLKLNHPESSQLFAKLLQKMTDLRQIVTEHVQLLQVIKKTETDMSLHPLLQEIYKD
T3 sequence (Q9UBK2 1-798 partner): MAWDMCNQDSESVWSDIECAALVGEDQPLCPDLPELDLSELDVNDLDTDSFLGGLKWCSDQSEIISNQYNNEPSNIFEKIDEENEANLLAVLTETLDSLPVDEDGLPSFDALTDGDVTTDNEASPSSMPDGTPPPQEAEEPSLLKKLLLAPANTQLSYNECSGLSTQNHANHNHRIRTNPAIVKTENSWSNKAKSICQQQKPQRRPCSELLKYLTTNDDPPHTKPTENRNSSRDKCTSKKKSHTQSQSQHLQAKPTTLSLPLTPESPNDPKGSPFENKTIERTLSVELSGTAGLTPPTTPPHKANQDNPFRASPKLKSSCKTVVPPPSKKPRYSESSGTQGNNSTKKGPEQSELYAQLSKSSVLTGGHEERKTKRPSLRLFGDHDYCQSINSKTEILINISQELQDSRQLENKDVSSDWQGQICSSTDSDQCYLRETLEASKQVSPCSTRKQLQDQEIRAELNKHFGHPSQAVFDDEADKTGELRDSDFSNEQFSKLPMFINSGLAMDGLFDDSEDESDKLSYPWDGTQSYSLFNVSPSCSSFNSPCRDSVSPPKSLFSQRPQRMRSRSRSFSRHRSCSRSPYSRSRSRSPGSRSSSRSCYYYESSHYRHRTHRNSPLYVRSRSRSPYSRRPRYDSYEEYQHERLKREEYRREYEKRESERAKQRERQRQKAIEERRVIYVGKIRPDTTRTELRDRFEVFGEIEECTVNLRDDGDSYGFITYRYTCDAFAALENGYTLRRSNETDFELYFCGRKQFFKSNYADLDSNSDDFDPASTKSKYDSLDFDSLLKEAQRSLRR
Description: Co-factor recruitment assay (mammalian-2-hybrid, CV-1 cells), PGC-1. The following applies: for EC50: read-out: PGC1 EC50; for PGC1 Eff: relative to a PPARγ full agonist.
Description: as §2

Assay [4] concerns the target T1, PPARγ. Description: Cotransfection (CTF) / response element assays, PPARγ in CV-1 cells. Set-up: Eff (γ); HD Eff; other: response element assay, HD PPRE reporter; LPL Eff; other: response element assay, LPL PPRE reporter; ApoA1 Eff; other: response element assay, ApoA1; PPARγ or PPARα are constitutively expressed using plasmids containing the cytomegalovirus promoter. The note with it: for Eff (γ): Table 1, relative to PPARγ full agonist set at 100%.
Description: as §1

Setting [5] is: CTF, Table 1, read-out: EC50 (γ).
Setting [6] is: response element assay, HD PPRE reporter.
Setting [7] is: response element assay, HD PPRE reporter, read-out: HD EC50.
Setting [8] is: response element assay, LPL PPRE reporter.
Where [9] appears, read: response element assay, LPL PPRE reporter, read-out: LPL EC50.

The source of these data is patent US7321056B2, “Selective peroxisome proliferator activated receptor modulators” (Eli Lilly and Company, priority 2003, dated 2008).

Each structure is given as a SMILES string. Read-outs that look alike come from different tables or passages of the source.

What is called EC50 is the concentration needed to bring the measured effect to its halfway point.

Regarding `CCOc1ccc(CCNC(=O)COc2ccc(C[C@H](OC)C(=O)O)cc2)cc1` [formula V, (S)-3-(4-{[2-(4-ethoxy-phenyl)-ethylcarbamoyl]-methoxy}-phenyl)-2-methoxy-propionic acid], the Emax at PPARγ [1] fell in the range of 39 to 80%. In addition, the EC50 in assay [2] was 2870 nM; in assay [3], 2600 nM; at PPARγ [4] (setting [5]), 1010 nM; at PPARγ [4] (response element assay, ApoA1 PPRE reporter, read-out: ApoA1 EC50) it was 335 nM; at PPARγ [4] (setting [7]), 1040 nM; at PPARγ [4] (setting [9]) it was 466 nM. For the same molecule, the “ASC2 Eff” value in assay [2] is 33 % efficacy. Moreover, the “PGC1 Eff” value in assay [3] was 24 % efficacy. Moreover, on PPARγ [4] (CTF), the “Eff (γ)” value worked out at 60 % efficacy. The “ApoA1 Eff” value at PPARγ [4] (response element assay, ApoA1 PPRE reporter) amounted to 39 % efficacy. Also, the “HD Eff” value at PPARγ [4] (setting [6]) is on record as 58 % efficacy. At PPARγ [4] (setting [8]), the “LPL Eff” value was determined as 80 % efficacy.
For `COc1ccc(CCNC(=O)COc2ccc(C[C@H](OC)C(=O)O)cc2)cc1` [formula III, (2S)-3-(4-{[2-(4-methoxy-phenyl)-ethylcarbamoyl]-methoxy}-phenyl)-2-methoxy-propionic acid], the Emax on PPARγ [1] fell in the range of 30 to 86%. Moreover, the EC50 in assay [2] came to 1380 nM; in assay [3] it was 2070 nM; at PPARγ [4] (setting [5]), 1890 nM; on PPARγ [4] (setting [7]), 1140 nM; at PPARγ [4] (setting [9]), 1420 nM. The “ASC2 Eff” value in assay [2] was 15 % efficacy. Also, in assay [3], the “PGC1 Eff” value is 24 % efficacy. Besides, on PPARγ [4] (CTF), the “Eff (γ)” value was 60 % efficacy. Moreover, on PPARγ [4] (setting [6]), the “HD Eff” value is reported as 54 % efficacy. Also, the “LPL Eff” value on PPARγ [4] (setting [8]) came to 86 % efficacy.
